# Experimental data reported in a melting point compilation (Tetko et al.; mined from patent text by program, amines drawn as free bases though some values may be those of a salt).
row,SMILES,melting point
1,O=C(NCCO)C1(c2cccc3nn(Cc4cccc(C(F)(F)F)c4)cc23)C=CC=CN1 (stereo unspecified),50 to 51 °C
2,CCCCCCOc1cccc(C[C@H](NC(=O)c2cccc(-c3ncco3)c2)[C@H](O)CNCc2cccc(CC)c2)c1,117 to 120 °C
3,NCC1Cc2cc(-c3ccccc3)cc(-c3ccc(F)cc3F)c2O1 (stereo unspecified),159 to 162 °C
4,CCOCc1nc2cnc3cc(Br)cnc3c2n1CC(C)(C)F,127 to 128 °C
5,C#CCc1c(C)nc2c(NCc3c(C)cccc3NC(=O)OC)cc(NC(C)=O)cn12,125 to 128 °C
6,CC(=O)Nc1ccc(C#N)cc1I,176 to 181 °C
7,O=C1N=CC(OCC2CC2)(C(F)(F)F)c2cc(Cl)ccc2N1 (stereo unspecified),185 to 186 °C
8,NC(=NCC(F)(F)F)Nc1ccnc(SCCCC(=O)O)n1,234 to 236 °C
9,COC(=O)NC1CCc2sc(Cl)cc2C1 (stereo unspecified),120 to 121 °C
10,CC(C)C(=O)c1cnc(C(CC2CCCC2)c2ccc(S(C)(=O)=O)cc2)[nH]1 (stereo unspecified),171 to 172 °C
11,COc1ccc(C(=O)N2CCc3cc(S(=O)(=O)N4CC(c5ccccc5)NC4=O)ccc32)cc1 (stereo unspecified),220 to 222 °C
12,COCc1ccc(OCC(=O)O)c(NC(=O)c2ccc(OCCCCc3ccccc3)cc2)c1,126 to 129 °C
13,Cc1ccc2[nH]cc(C3=C(c4c[nH]c5ccc(C)cc45)C(=O)N(C)C3=O)c2c1,270 to 275 °C
14,C#CCN1CCCc2ccc(OC(=O)Nc3ccc(Cl)cc3)cc21,160 °C
15,CC1=C(CN(C)C(=O)N2CCN(C(N)=O)CC2)C(C)(C)CCC1,140 °C
16,CCC=CCn1c(=O)sc2c(=O)n(N)c(N)nc21,137 to 139 °C
17,CCCCCCCCCCCCCc1cc(C(=O)OCC)c[nH]1,59.5 to 60.5 °C
18,Cc1cc2c(cc1C(=O)c1ccc(C(=O)O)cc1)C1(C)C3(C)CCC(C3)C1(C)O2 (stereo unspecified),238 to 239 °C
19,CCOC(=O)C1C(=O)CC(=O)CC1c1ccccc1 (stereo unspecified),86 to 87 °C
20,C1C2CC3CC1CC(C2)C3=C1C2CC3CC(C2)CC1C3,185 to 186 °C
21,Cc1ccc(-c2ccccc2CC(N)=NO)cc1,127 to 128 °C
22,Cc1ccc(CN(C(=S)Nc2ccccc2)C2CCCC2)cc1,109 to 111 °C
23,CN1CCc2c(Cl)ccc3c4c(n(c23)CC1)CCCC4,128 to 130 °C
24,COc1cc(CCC(=O)Nc2cccc(C(=O)O)c2)ccc1O,218 to 220 °C
25,CCc1cccc2c3c([nH]c12)C(CC)(CC(C)=O)OCC3 (stereo unspecified),154 to 155 °C
26,CCOC(=O)CCC(CC(=O)c1ccc(N)cc1)C(=O)OCC (racemic),58 to 61 °C

row,SMILES,melting point
1,O=C1C(=C2C=C(c3ccccc3)S(=O)(=O)C(c3ccccc3)=C2)C(=O)c2ccccc21,235 to 236 °C
2,C=CCN1CCN(C(=O)OC2C3=C(OCCS3)C(=O)N2c2ccc3ccc(Cl)nc3n2)CC1 (stereo unspecified),254 °C
3,CCc1nc2c(N)nc3ccccc3c2n1CC1(O)CCN(C)CC1,233 to 234 °C
4,CC1=Cc2cc(C(=O)O)ccc2OC1(C)C,169 to 171 °C
5,N#CCCCC(=O)c1cc2ccccc2o1,79 °C
6,Fc1ccc2[nH]c3c(c2c1)CN(CCc1ccncc1)CC3,233 to 235 °C
7,Clc1ccc2[nH]c(SCc3nc4ccccc4s3)nc2c1,176 to 180 °C
8,Brc1ccc(C2=CCN(CCSCc3c[nH]c4ccccc34)CC2)cc1,166 to 167 °C
9,O=C(Nc1cccc(S(=O)(=O)NCC2CC2)c1)c1cnn2c(C(F)(F)F)cc(-c3ccc(C(F)(F)F)cc3)nc12,234 °C
10,COc1ccc(S(=O)(=O)Nc2ccccc2NC(=O)c2ccc(F)cc2)cc1,169 to 170 °C
11,CNC(=O)C(=O)CCCCCCS(=O)(=O)c1ccc(-c2ccccc2)cc1,134 to 135 °C
12,O=C(Cn1c2c(c(=O)n3nc(-c4ccccc4)cc13)CN(C1CCCCC1)C2=O)c1ccccc1,164 to 167 °C
13,Cc1ccccc1C(=O)c1[nH]c2cc(Cl)ccc2c1CC(=O)O,150 to 152 °C
14,Cc1nc(CCl)c(Br)s1,154 to 156 °C
15,O=[N+]([O-])c1ccc(Oc2ccc(O)c(Cl)c2Cl)cc1,147 to 150 °C
16,CCOC(=O)c1[nH]c(CC)c(CC)c1C,71 to 73 °C
17,Cc1nc(Br)c(Br)n1Cc1cc2c(cc1Cl)OCO2,185 °C
18,Cc1cc(CN2CCC(N(C)S(=O)(=O)c3ccc(Nc4nccc(Nc5ccc(F)c(C)c5)n4)cc3)CC2)no1,172 to 173 °C
19,O=C(O)COc1ccc(S(=O)(=O)C(Br)(Br)Br)cc1,238 to 246 °C
20,COc1ccc(CC(=O)NC(NC(Cc2cccnc2C)=NC#N)C(C)(C)C)cc1OC (stereo unspecified),164 to 165 °C
21,CNCC1CCN(c2c(F)cc3c(=O)c(C(=O)O)cn4c3c2OCC4C)C1 (stereo unspecified),235 to 238 °C
22,NCC(=O)N(Nc1nncc(-c2ccccc2)n1)C(=O)OCc1ccccc1,166 to 167 °C
23,CC(=NNCCCC(C)C)C(=O)O,118 to 125 °C
24,CC12CC(=O)C3C(CCC4CC(O)CCC43C)C1CCC2C(=O)O (stereo unspecified),265 to 270 °C
25,COC(=O)c1ccccc1-n1c(CCl)nc2c(C)cccc2c1=O,168 to 169 °C
26,CC(C)N(CCS(=O)(=O)c1ccc(F)cc1)C(=O)Oc1ccccc1,94 to 95 °C

row,SMILES,melting point
1,Cc1ccc(C)c(-c2ccc(S(=O)(=O)N3c4ccccc4CC3C(=O)NCCOc3ccc(CC(=O)O)cc3)cc2)c1 (stereo unspecified),81 to 84 °C
2,COc1ccc(O[C@@H]2CN(Cc3ccccc3)C[C@H]2O)cc1 (relative stereo),84 to 85 °C
3,C=CCOc1ncc(F)c(O)n1,138 to 141 °C
4,COc1cc(C=CC=C2SC(=O)NC2=O)ccc1OCc1coc(-c2ccccc2)n1,230 to 231 °C
5,COc1ccccc1N1Sc2ccccc2C(c2ccccc2)C1=O (stereo unspecified),133 °C
6,CC(=O)NC1CCCCC1,108 to 109 °C
7,CC(C(O)c1ccc(O[Si](C(C)C)(C(C)C)C(C)C)c(F)c1)N1CCC(O)(c2ccc(F)cc2)CC1 (stereo unspecified),159 to 160 °C
8,COc1ccc(COC(=O)c2ccc(C(O)C(=O)O)cc2)cc1 (stereo unspecified),111 to 113 °C
9,CC(=O)Oc1c(C(C)C)c(-c2ccc(F)cc2)c(O)c(C(C)C)c1C(C)C,174 to 177 °C
10,Cc1cc(C)c(C(O)c2ccc(-n3ccnc3)c(Cl)c2)c(C)c1 (stereo unspecified),156 to 157 °C
11,C=C(C(=O)c1ccc(C(=O)O)cc1)c1ccc(OC)c(-c2cccs2)c1,163 to 164 °C
12,Nc1ccc(C(=O)c2nccs2)cc1[N+](=O)[O-],179 to 181 °C
13,COc1ccc(OC)c(NC(=O)Cc2ccccc2)c1,85 °C
14,COC(=O)c1ccc2c(c1)CN(c1c(F)cc3c(=O)c(C(=O)O)cn4c3c1OCC4C)C2 (stereo unspecified),257 to 262 °C
15,COc1ccccc1C1C2CCC(C2)C12CCC(=O)N2 (stereo unspecified),260 °C
16,CCOc1ccc(-c2c(Cl)ncn2-c2ccc(S(=O)(=O)NC(C)(C)C)cc2)cc1,189 °C
17,CC(=O)c1cc(O)c(O)c([N+](=O)[O-])c1,159 to 160 °C
18,CC(=O)Oc1cc(CNC=C2C(=O)NC(=O)c3ccc(Br)cc32)cc(OC(C)=O)c1,257 to 258 °C
19,O=[N+]([O-])c1cn2c(n1)OC(COc1ccc(N3CCN(CC4CCN(Cc5ccc(C(F)(F)F)cc5)CC4)CC3)cc1)CC2 (stereo unspecified),214 to 217 °C
20,Cc1cc(-c2cnn3c(C(F)(F)F)cc(-c4ccc(C(F)(F)F)cc4)nc23)ccn1,243 °C
21,CCCC(=O)c1cnc2cc(CO)ccc2c1Nc1ccccc1C,176 to 178 °C
22,O=C1Nc2ccccc2N(C(=O)CN2CCCCC2CN2CCCCC2)c2cscc21 (stereo unspecified),190 to 195 °C
23,O=C(O)c1cccc2c1CCc1ccc(O)cc1S2,219 to 221 °C
24,O=C1C(CCO)Oc2cc(F)ccc2N1Cc1cccc(F)c1 (stereo unspecified),78 to 79 °C
25,FC(F)(F)c1cccc(C2=CCNc3ccnn32)c1,61 to 64 °C
26,Cc1cccc(C)c1N(C(=O)CCl)C1=CCCCC1,78 °C

row,SMILES,melting point
1,Nc1nc2cc(Cl)c(Cl)cc2[nH]1,260 to 262 °C
2,COc1ccc(C2Sc3cc(Cl)ccc3NC(=O)C2=O)cc1 (stereo unspecified),168 to 169 °C
3,CCCCNC(=S)Nc1ccc(NNC=O)c(OC)c1,130 to 132 °C
4,C=CCOc1cc(-n2nc(C)c(C)c2C)c(F)cc1Cl,97 to 99 °C
5,CCCCC[C@H]1CC[C@H](CCc2ccc(-c3ccc(Br)cc3F)cc2)CC1,57.5 °C
6,CS(=O)(=O)c1ccc(-c2cnn(-c3ccc(F)c(Cl)c3)c(=O)c2Cc2ccc(F)cc2)cc1,153 to 156 °C
7,CC(C)(C)CC(C)(C)c1cc(N=Nc2cc(C(F)(F)F)ccc2Cl)c(O)c(C(C)(C)c2ccccc2)c1,120 to 127 °C
8,CC(C)(C)c1nn(-c2ccc(N)cc2Cl)c(=O)o1,158 to 159 °C
9,COc1cc2[nH]cc(-c3cc4c(Cl)c(F)cnc4[nH]3)c2nc1OC,283 to 284 °C
10,COc1cc(C(F)(F)F)cc(Cl)c1-n1nc(C#N)c(SC(C)(F)F)c1N,79 °C
11,C(=CCN1C(c2ccccc2)CCCC1c1ccccc1)CN1C(c2ccccc2)CCCC1c1ccccc1 (stereo unspecified),197 to 200 °C
12,CS(=O)(=O)Nc1ccc(CCc2n[nH]c3c2c(=O)n(-c2ccccc2)c2ncccc32)cc1,284 to 285 °C
13,Brc1cc(Br)c(-c2ccccc2)nn1,145 to 146 °C
14,COc1cc(N2CCC(N3CCN(C)CC3)CC2)ccc1N,94 to 99 °C
15,O=c1[nH]ncc2[nH]c(-c3ccc(OC(F)F)c(OC4CCC4)c3)cc12,289 to 291 °C
16,O=C(c1ccc(Nc2ccnc3cc(C(F)(F)F)ccc23)cc1)N1CCC(O)(c2cccc(C(F)(F)F)c2)CC1,278 to 279 °C
17,CNC(=O)N(OC)c1ccc(Oc2ccc3sncc3c2)c(Cl)c1,128 °C
18,O=S1(=O)CCSC(Oc2cccc(Cl)c2)=N1,170 °C
19,CCCCCC(O)/C=C/n1ccnc1 (stereo unspecified),145 to 148 °C
20,O=[N+]([O-])c1cccc(F)c1CCO,42 to 44 °C
21,CC1=NN(c2cc(Cl)c(Sc3ccc(Cl)cc3)c(Cl)c2)C(=O)NC1,258 to 259 °C
22,Nc1nnn(CC(F)(F)F)n1,95 to 97 °C
23,Cc1c(COc2ccc(-c3ccc(S(=O)(=O)NC(C(=O)O)C(C)C)cc3)cc2)oc2ccc(Br)c(OC(C)C)c12 (stereo unspecified),137 to 140 °C
